# According to patent US8633185B2 (priority 2005, dated 2014):
# Key:
# [1] = system: OVCAR-5 human ovarian tumour cells; experiment: OVCAR-5 cell line cytotoxicity (resazurin); assay type: cell-based; details: 96 hours, read-out: ZC-423 IC50
# Procedure: (§1) LOXIMVI and OVCAR-5 Cell Lines
# (§2) A cell solution containing 5×10^4 cells/ml of either LOXIMVI human melanoma cells or OVCAR-5 human ovarian tumour cells was made up in phenol red free RPMI 1640 (Sigma) supplemented with 10% foetal calf serum (Sigma) and 20 mM L-glutamine (Sigma). 190 μl cell solution was added to each well of a fluorescence compatible polystyrene 96 well cell culture plate (Greiner BioOne), from columns 2 to 11. 190 μl culture media was added to columns 1 and 12. Plates were incubated overnight at 37° C. in 5% CO2. Compounds were dissolved in 100% Biotech grade DMSO (Sigma) and subsequently diluted to stock concentrations in 2% DMSO. 100 μl of the stock concentrations were serially diluted 1 in 3 in 2% DMSO in intermediate polystyrene 96 well cell culture plates (Nunc). 2% DMSO was placed in the outer columns for use as blanks, and in the 2nd or 11th column (depending on whether the top or bottom of an assay plate was to be used) for use as a control. The entire row of the intermediate plate was then transferred in triplicate, 10 μl per well, to either rows B to D or E to G of the cell plate. […] Fluorescence was read at 530-570 nm excitation, 580-620 nm emission using an Envision plate reader (Applied Biosystems). Data was then analysed by Graphpad PRISM, and an IC50 obtained (defined as the compound concentration needed to reduce the cell population by half).
# Solubility in water = assay type: physicochemical; details: saturated solution in water
# Procedure: Solubility was determined by dissolving the test compound in the minimum amount of water to produce a saturated solution.
# [2] = system: LOX IMVI (human melanomas); experiment: Anti tumour activity, LOX IMVI xenograft in nude mice; assay type: in vivo
# Procedure: LOX IMVI (human melanomas) were grown subcutaneously in nude mice (B&K Universal, Hull, UK). Tumours were transplanted as single tumour fragments in the flank by trocar. Groups of 8 tumour-bearing mice were treated with ZC423 at the previously established single intravenous (iv) maximum tolerated dose (MTD) of 3 mgkg^−1 using 5% DMA/saline as the vehicle. Control mice (n=8) were treated with vehicle alone.
# Treatment commenced when tumours could be reliably measured by calipers (mean dimensions 4×4 mm) and therapeutic effects were assessed by daily caliper measurements of the tumour and mouse weights. Tumour volumes were determined by the formula a^2×b/2 where a is the smaller and b is the larger diameter of the tumour. The results are shown in FIG. 1 as a graphs of relative tumour volume against time (▪ ZC423; ♦ Control—solvent alone).
# [3] = system: K562 human chronic myeloid leukaemia cells; experiment: K562 cell line MTT assay, 96 hour exposure; assay type: cell-based; details: 96 hour incubation
# Procedure: In a modification of the above method, 5×10^4 K562 cells (as above) were maintained in RPMI 1640 medium (Sigma) supplemented with 10% foetal calf serum (Sigma) and 20 mM L-glutamine (Sigma) and 190 μL of this solution incubated with specific doses of the drug (10 μL) for 96 hours at 37° C. in 5% CO2. 250 μg/ml (final) MTT was added to each well and the plates incubated for a further 4 hours. Absorbance was read at 450 nm using an Envision plate reader (Applied Biosystems). Data was then analysed by Graphpad PRISM, and an IC50 obtained (defined as the compound concentration needed to reduce the cell population by half).
# [4] = system: LOXIMVI human melanoma cells; experiment: LOXIMVI cell line cytotoxicity (resazurin); assay type: cell-based; details: 96 hours, read-out: ZC-423 IC50
# Procedure: as §1, §2
# [5] = Single intravenous maximum tolerated dose; assay type: in vivo, mice; details: previously established
# [6] = system: Closed-circular puc18 DNA linearized with HindIII; experiment: DNA cross-linking (agarose gel); assay type: biochemical; details: amount required to cross-link 50% of the DNA (XL50), 37° C., pH 7.2
# Procedure: Closed-circular puc18 DNA was linearized with HindIII, then dephosphorylated, and finally 5′ end labeled with [y32P]-ATP using polynucleotide kinase. Reactions containing 10 ng of DNA and drug were carried out in aqueous 1×TEOA (25 mM triethanolamine, 1 mM EDTA, pH 7.2) buffer at a final volume of 50 μL at 37° C. Reactions were terminated by addition of an equal volume of stop solution (0.6 M NaOAc, 20 mM EDTA, 100 μg/mL tRNA) followed by precipitation with ethanol. Following centrifugation of the samples, the supernatants were discarded and the pellets were dried by lyophilization. […]
# Electrophoresis was performed on a 0.8% submerged horizontal agarose gel, 20 cm in length for 16 hours at 38-40 V in 1×TAE running buffer (2.42 g Tris Base, 0.372 g EDTA, 0.571 ml glacial acetic acid). […] The film bands were quantitated using a BioRad GS-670 imaging laser densitometer. The percentage of cross-linking was calculated by measuring the total DNA in each lane (the sum of the densities for the double-stranded and single-stranded bands) relative to the amount of density of double-stranded band alone. A dose response curve was derived by plotting drug concentration against the determined percentage level of cross-linked DNA, from which was derived the amount required to cross-link 50% of the DNA (XL50).
# K562 cells = experiment: K562 cell line Alamar Blue assay; assay type: cell-based, human; details: 96 hours
# Procedure: K562 Cell Line (Alamar Blue Assay)
# The compounds to be tested were dissolved in 100% Biotech grade DMSO (Sigma) and subsequently diluted to stock concentrations of either 2 μM or 200 nM in 2% DMSO. 100 μl of the stock concentrations were serially diluted 1 in 3 in 2% DMSO in intermediate polystyrene 96 well cell culture plates (Nunc). 2% DMSO was placed in the outer columns for use as blanks, and in the 2nd or 11th column (depending on whether the top or bottom of an assay plate was to be used) for use as a control. The entire row of the intermediate plate was then transferred in triplicate to either rows B to D or E to G of a fluorescence compatible polystyrene 96 well cell culture plate (Greiner BioOne); 10 μl to each well. A cell solution containing 5×10^4 cells/ml was made up in phenol red free RPMI 1640 (Sigma) supplemented with 10% foetal calf serum (Sigma) and 20 mM L-glutamine (Sigma). 190 μl cell solution was added to each well of the assay plate, from columns 2 to 11. 190 μl culture media was added to columns 1 and 12. Plates were incubated for 96 hours at 37° C. in 5% CO2. 1 μM (final) rezasurin (converted to fluorescent resofurin by viable cells) was added to each well and the plates incubated for a further 4 hours. Fluorescence was read at 530-570 nm excitation, 580-620 nm emission using an Envision plate reader (Applied Biosystems). Data was then analysed by Graphpad PRISM, and an IC50 obtained (defined as the compound concentration needed to reduce the cell population by half).
# [7] = system: K562 human chronic myeloid leukaemia cells; experiment: K562 cell line MTT assay, 1 hour exposure; assay type: cell-based; details: 1 hour incubation
# Procedure: K562 Cell Line (MTT Assay)
# K562 human chronic myeloid leukaemia cells were maintained in RPM1 1640 medium supplemented with 10% fetal calf serum and 2 mM glutamine at 37° C. in a humidified atmosphere containing 5% CO2 and were incubated with a specified dose of drug for 1 hour at 37° C. in the dark. The incubation was terminated by centrifugation (5 min, 300 g) and the cells were washed once with drug-free medium. Following the appropriate drug treatment, the cells were transferred to 96-well microtiter plates (10^4 cells per well, 8 wells per sample). Plates were then kept in the dark at 37° C. in a humidified atmosphere containing 5% CO2. The assay is based on the ability of viable cells to reduce a yellow soluble tetrazolium salt, 3-(4,5-dimethylthiazol-2-yl)-2,5-diphenyl-2H-tetrazolium bromide (MTT, Aldrich-Sigma), to an insoluble purple formazan precipitate. Following incubation of the plates for 4 days (to allow control cells to increase in number by approximately 10 fold), 20 μL of MTT solution (5 mg/mL in phosphate-buffered saline) was added to each well and the plates further incubated for 5 h. The plates were then centrifuged for 5 min at 300 g and the bulk of the medium pipetted from the cell pellet leaving 10-20 μL per well. […] The optical density was then read at a wavelength of 550 nm on a Titertek Multiscan ELISA plate reader, and a dose-response curve was constructed. […]
compound,measurement,setting,value
"1,1′[[(Propane-1,5-diyl)dioxy]bis[(11aS)-11-sulpho-7-methoxy-2-(4-methoxyphenyl)-1,10,11,11a-tetrahydro-5H-pyrrolo[2,1-c][1,4]benzodiazepin-5-one]] sodium salt [ZC-423]",IC50,[1],5.2 nM
same,Amount of compound (g) in 1 L water,Solubility in water,11 g in 1 L water
same,"activity (relative tumour volume vs control), Mann-Whitney analysis","[2]; single iv 3 mgkg^−1, FIG. 1",statistically significant
same,tumour free animals,"[2]; single iv 3 mgkg^−1, at 68 days, FIG. 2",all animals were tumour free
same,IC50,[3],1.5 nM
same,IC50,[4],4.83 nM
same,single intravenous (iv) maximum tolerated dose (MTD),[5],3 mgkg^−1
COc1cc2c(cc1OCCCOc1cc3c(cc1OC)C(=O)N1C=C(c4ccc5ccccc5c4)C[C@H]1C=N3)N=C[C@@H]1CC(c3ccc4ccccc4c3)=CN1C2=O [Compound 18],IC50,[6],200 nM
COc1cc2c(cc1OCCCOc1cc3c(cc1OC)C(=O)N1C=C(c4cccs4)C[C@H]1C=N3)N=C[C@@H]1CC(c3cccs3)=CN1C2=O [Compound 21],IC50,[6],500 nM
"COc1cccc(C2=CN3C(=O)c4cc(OC)c(OCCCOc5cc6c(cc5OC)C(=O)N5C=C(c7cccc(OC)c7)C[C@H]5C=N6)cc4N=C[C@@H]3C2)c1 [Compound 26, 1,1′-[[(Propane-1,3-diyl)dioxy]bis[(11aS)-7-methoxy-2-(3-methoxybenzene)-1,11a-dihydro-5H-pyrrolo[2,1-c][1,4]benzodiazepine-5-one]]]",IC50,K562 cells; Homo sapiens,< 1 nM
"COc1cccc(C2=CN3C(=O)c4cc(OC)c(OCCCOc5cc6c(cc5OC)C(=O)N5C=C(c7cccc(OC)c7)C[C@H]5C(S(=O)(=O)[O-])N6)cc4NC(S(=O)(=O)[O-])[C@@H]3C2)c1.[Na+].[Na+] (stereo partly drawn) [Compound 27, 1,1′-[[(Propane-1,3-diyl)dioxy]bis[(11aS)-11-sulpho-7-methoxy-2-(3-methoxybenzene)-1, 10,11,11a-tetrahydro-5H-pyrrolo[2,1-c][1,4]benzodiazepin-5-one]] sodium salt]",IC50,K562 cells,< 1 nM
same,Amount of compound (g) in 1 L water,Solubility in water,9 g in 1 L water
COc1cc2c(cc1OCCCOc1cc3c(cc1OC)C(=O)N1C=C(c4ccc5c(c4)OCO5)C[C@H]1C=N3)N=C[C@@H]1CC(c3ccc4c(c3)OCO4)=CN1C2=O [Compound 29],IC50,K562 cells; Homo sapiens,< 1 nM
"COc1cc2c(cc1OCCCOc1cc3c(cc1OC)C(=O)N1C=C(c4ccc(F)cc4)C[C@H]1C=N3)N=C[C@@H]1CC(c3ccc(F)cc3)=CN1C2=O [Compound 32, 1,1′-[[(Propane-1,3-diyl)dioxy]bis[(11aS)-7-methoxy-2-(4-fluorobenzene)-1,11a-dihydro-5H-pyrrolo[2,1-c][1,4]benzodiazepine-5-one]]]",IC50,K562 cells; Homo sapiens,< 1 nM
"COc1cc2c(cc1OCCCOc1cc3c(cc1OC)C(=O)N1C=C(c4ccc(F)cc4)C[C@H]1C(S(=O)(=O)[O-])N3)NC(S(=O)(=O)[O-])[C@@H]1CC(c3ccc(F)cc3)=CN1C2=O.[Na+].[Na+] (stereo partly drawn) [Compound 33, 1,1′-[[(Propane-1,3-diyl)dioxy]bis[(11aS)-11-sulpho-7-methoxy-2-(4-fluorobenzene)-1, 10,11,11a-tetrahydro-5H-pyrrolo[2,1-c][1,4]benzodiazepin-5-one]] sodium salt]",IC50,K562 cells,< 1 nM
same,Amount of compound (g) in 1 L water,Solubility in water,3 g in 1 L water
"COc1ccc(C2=CN3C(=O)c4cc(OC)c(OCCCOc5cc6c(cc5OC)C(=O)N5C=C(c7ccc(OC)cc7)C[C@H]5C=N6)cc4N=C[C@@H]3C2)cc1 [ZC-207, 1,1′-[[(Propane-1,3-diyl)dioxy]bis[(11aS)-7-methoxy-2-(p-methoxybenzene)-1,11a-dihydro-5H-pyrrolo[2,1-c][1,4]benzodiazepine-5-one]]]",IC50,[7],5.3 nM
same,Amount of compound (g) in 1 L water,Solubility in water,Insoluble
